Toxic doses and inconclusive results are not listed.
Test system: CD2F1 mice, L1210 leukemia ip, survival T/C
Test: NCI In Vivo Anticancer Drug Screen. Data for tumor model L1210 Leukemia (intraperitoneal) in CD2F1 (CDF1) mice
Settings: endpoint: mean survival time, higher = longer survival
Method in brief: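 In this screen, transplantable tumors were grown in mice given either the compound or its vehicle. Results were expressed as the treated measurement relative to the control measurement.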

[1] = dose: 100.0 mg/kg/injection, schedule: Q01DX001 (ip), vehicle: other
[2] = dose: 200.0 mg/kg/injection, schedule: Q01DX001 (ip), vehicle: other
[3] = dose: 100.0 mg/kg/injection, schedule: Q04DX003 (ip), vehicle: saline with Tween-80
[4] = dose: 100.0 mg/kg/injection, schedule: Q01DX009 (ip), vehicle: saline with Tween-80
[5] = dose: 200.0 mg/kg/injection, schedule: Q01DX009 (ip), vehicle: saline with Tween-80
[6] = dose: 200.0 mg/kg/injection, schedule: Q04DX003 (ip), vehicle: saline with Tween-80
[7] = dose: 400.0 mg/kg/injection, schedule: Q04DX003 (ip), vehicle: saline with Tween-80
[8] = dose: 50.0 mg/kg/injection, schedule: Q01DX009 (ip), vehicle: saline with Tween-80
[9] = dose: 50.0 mg/kg/injection, schedule: Q01DX009 (ip), vehicle: saline

## S=c1cn[nH]c2ccc(Br)cc12
[1]
  T/C: 96 % of control
[2]
  T/C: 103 % of control
dose: 400.0 mg/kg/injection, schedule: Q01DX001 (ip), vehicle: other
  T/C: 92 % of control

## C[SeH]C.C[SeH]C.O.O=S(=O)(O)O.[Pt]
dose: 12.5 mg/kg/injection, schedule: Q04DX003 (ip), vehicle: other
  T/C: 89 % of control
dose: 25.0 mg/kg/injection, schedule: Q04DX003 (ip), vehicle: other
  T/C: 101 % of control
dose: 50.0 mg/kg/injection, schedule: Q04DX003 (ip), vehicle: other
  T/C: 103 % of control
dose: 100.0 mg/kg/injection, schedule: Q04DX003 (ip), vehicle: other
  T/C: 107 % of control

## COc1ccccc1NC(=O)Oc1ccc(-c2ccccc2)cc1Cl
dose: 100.0 mg/kg/injection, schedule: Q04DX002 (ip), vehicle: saline with Tween-80
  T/C: 100 % of control
dose: 200.0 mg/kg/injection, schedule: Q04DX002 (ip), vehicle: saline with Tween-80
  T/C: 103 % of control
dose: 400.0 mg/kg/injection, schedule: Q04DX002 (ip), vehicle: saline with Tween-80
  T/C: 88 % of control

## Cc1cc([N+](=O)[O-])c2ccccc2[n+]1[O-]
[3]
  T/C: 100 % of control

## CCCCCCCCCCCCCCCCCCSC1=CC(=O)C(OC)=C(OC)C1=O
dose: 3.13 mg/kg/injection, schedule: Q01DX009 (ip), vehicle: Klucel (hydroxypropylcellulose) (HPC)
  T/C: 90 % of control
dose: 6.25 mg/kg/injection, schedule: Q01DX009 (ip), vehicle: Klucel (hydroxypropylcellulose) (HPC)
  T/C: 88 % of control
dose: 50.0 mg/kg/injection, schedule: Q01DX009 (ip), vehicle: Klucel (hydroxypropylcellulose) (HPC)
  T/C: 94 % of control

## C=CCC(C)(C#N)C1C=CCC1 (stereo unspecified)
[4]
  T/C: 105 % of control
[3]
  T/C: 102 % of control
[5]
  T/C: 102 % of control
[6]
  T/C: 100 % of control
dose: 400.0 mg/kg/injection, schedule: Q01DX009 (ip), vehicle: saline with Tween-80
  T/C: 103 % of control
[7]
  T/C: 93 % of control

## [Co].[NH-]CC[NH-].[NH-]CC[NH-].[NH-]CC[NH-]
dose: 25.0 mg/kg/injection, schedule: Q01DX009 (ip), vehicle: saline with Tween-80
  T/C: 93 % of control
[8]
  T/C: 101 % of control
[4]
  T/C: 110 % of control
dose: 100.0 mg/kg/injection, schedule: Q04DX003 (ip), vehicle: saline sonified
  T/C: 104 % of control

## C[n+]1c2ccccc2cc2ccccc21
dose: 12.0 mg/kg/injection, schedule: Q04DX003 (ip), vehicle: saline
  T/C: 102 % of control
dose: 25.0 mg/kg/injection, schedule: Q04DX003 (ip), vehicle: saline
  T/C: 98 % of control

## COc1cc(C2CNCc3cc(OC)c(OC)cc32)ccc1O (stereo unspecified)
dose: 75.0 mg/kg/injection, schedule: Q01DX001 (ip), vehicle: saline
  T/C: 96 % of control
dose: 150.0 mg/kg/injection, schedule: Q01DX001 (ip), vehicle: saline
  T/C: 104 % of control
dose: 300.0 mg/kg/injection, schedule: Q01DX001 (ip), vehicle: saline
  T/C: 100 % of control

## Cc1cccc(N)n1 (tested in a mixture with another compound)
dose: 12.5 mg/kg/injection, schedule: Q01DX009 (ip), vehicle: saline
  T/C: 104 % of control
dose: 25.0 mg/kg/injection, schedule: Q01DX009 (ip), vehicle: saline
  T/C: 101 % of control
[9]
  T/C: 96 % of control

## CCC(C)(C)N
dose: 100.0 mg/kg/injection, schedule: Q04DX003 (ip), vehicle: saline
  T/C: 100 % of control
dose: 200.0 mg/kg/injection, schedule: Q04DX003 (ip), vehicle: saline
  T/C: 106 % of control
dose: 400.0 mg/kg/injection, schedule: Q04DX003 (ip), vehicle: saline
  T/C: 103 % of control

## CC(=O)OCC(OC(C)=O)C(OC(C)=O)C(OC(C)=O)C(S)S (stereo unspecified)
[3]
  T/C: 103 % of control
[6]
  T/C: 109 % of control
[7]
  T/C: 101 % of control

## Nc1nc2ccccc2c2c1C(=O)NC2=O
[8]
  T/C: 103 % of control
[4]
  T/C: 100 % of control
[3]
  T/C: 95 % of control
[5]
  T/C: 96 % of control
[6]
  T/C: 91 % of control

## O=C(C=C(C(F)(F)F)C(F)(F)F)c1cccc([N+](=O)[O-])c1
dose: 12.5 mg/kg/injection, schedule: Q04DX003 (ip), vehicle: saline with Tween-80
  T/C: 103 % of control
dose: 25.0 mg/kg/injection, schedule: Q04DX003 (ip), vehicle: saline with Tween-80
  T/C: 96 % of control

## NC(N)=N/N=C\c1c2ccccc2cc2ccccc12
dose: 0.78 mg/kg/injection, schedule: Q01DX009 (ip), vehicle: water
  T/C: 100 % of control
dose: 1.56 mg/kg/injection, schedule: Q01DX009 (ip), vehicle: other
  T/C: 101 % of control
dose: 1.56 mg/kg/injection, schedule: Q01DX009 (ip), vehicle: water
  T/C: 101 % of control
dose: 3.13 mg/kg/injection, schedule: Q01DX009 (ip), vehicle: other
  T/C: 100 % of control
dose: 3.13 mg/kg/injection, schedule: Q01DX009 (ip), vehicle: water
  T/C: 116 % of control
dose: 6.25 mg/kg/injection, schedule: Q01DX009 (ip), vehicle: other
  T/C: 106 % of control
dose: 12.5 mg/kg/injection, schedule: Q01DX009 (ip), vehicle: other
  T/C: 106 % of control
dose: 12.5 mg/kg/injection, schedule: Q01DX009 (ip), vehicle: water
  T/C: 105 % of control
dose: 25.0 mg/kg/injection, schedule: Q01DX009 (ip), vehicle: other
  T/C: 111 % of control

## O=NN(CCCl)C(=S)Nc1ccccc1
[1]
  T/C: 98 % of control
[2]
  T/C: 98 % of control

## CNC(=O)NCC1OC(n2cnc3c(=O)[nH]c(N)nc32)C(O)C1O (stereo unspecified)
dose: 100.0 mg/kg/injection, schedule: Q01DX001 (ip), vehicle: saline
  T/C: 103 % of control
dose: 200.0 mg/kg/injection, schedule: Q01DX001 (ip), vehicle: saline
  T/C: 97 % of control
dose: 400.0 mg/kg/injection, schedule: Q01DX001 (ip), vehicle: saline
  T/C: 103 % of control

## CCCCCCCCCCCCCCCC/C(=C\c1ccc2ccccc2c1)[N+](=O)[O-]
dose: 75.0 mg/kg/injection, schedule: Q01DX001 (ip), vehicle: other
  T/C: 106 % of control
dose: 150.0 mg/kg/injection, schedule: Q01DX001 (ip), vehicle: other
  T/C: 96 % of control
dose: 300.0 mg/kg/injection, schedule: Q01DX001 (ip), vehicle: other
  T/C: 95 % of control

## COP(=O)(CC1CO1)OC (stereo unspecified)
[9]
  T/C: 103 % of control
dose: 100.0 mg/kg/injection, schedule: Q01DX009 (ip), vehicle: saline
  T/C: 106 % of control
dose: 200.0 mg/kg/injection, schedule: Q01DX009 (ip), vehicle: saline
  T/C: 98 % of control

## COc1cc(NS(C)(=O)=O)ccc1Nc1c2ccccc2nc2cc(C(F)(F)F)c(N)cc12
dose: 200.0 mg/kg/injection, schedule: Q01DX001 (ip), vehicle: Klucel (hydroxypropylcellulose) (HPC)
  T/C: 154 % of control
dose: 400.0 mg/kg/injection, schedule: Q01DX001 (ip), vehicle: Klucel (hydroxypropylcellulose) (HPC)
  T/C: 265 % of control

## FC(F)(F)S.[Hg]
dose: 5.0 mg/kg/injection, schedule: Q04DX003 (ip), vehicle: saline
  T/C: 101 % of control
dose: 10.0 mg/kg/injection, schedule: Q04DX003 (ip), vehicle: saline
  T/C: 97 % of control
dose: 20.0 mg/kg/injection, schedule: Q04DX003 (ip), vehicle: saline
  T/C: 95 % of control

## CCCCCCCCCCCC[NH-].CCCCCCCCCCCC[NH-].[Cl][Pt+2][Cl]
dose: 6.25 mg/kg/injection, schedule: Q04DX003 (ip), vehicle: saline + alcohol
  T/C: 111 % of control
dose: 12.5 mg/kg/injection, schedule: Q04DX003 (ip), vehicle: saline + alcohol
  T/C: 95 % of control
dose: 25.0 mg/kg/injection, schedule: Q04DX003 (ip), vehicle: saline + alcohol
  T/C: 100 % of control
dose: 50.0 mg/kg/injection, schedule: Q04DX003 (ip), vehicle: saline + alcohol
  T/C: 103 % of control
dose: 100.0 mg/kg/injection, schedule: Q04DX003 (ip), vehicle: saline + alcohol
  T/C: 100 % of control

## C/C(=C\Cl)CO
dose: 50.0 mg/kg/injection, schedule: Q01DX009 (ip), vehicle: acetone
  T/C: 100 % of control
dose: 100.0 mg/kg/injection, schedule: Q01DX009 (ip), vehicle: acetone
  T/C: 106 % of control

## CN(C)c1ccc(/C=C2\CCC/C(=C\c3ccc(N(C)C)cc3)C2=O)cc1
dose: 100.0 mg/kg/injection, schedule: Q01DX009 (ip), vehicle: Klucel (hydroxypropylcellulose) (HPC)
  T/C: 95 % of control
dose: 200.0 mg/kg/injection, schedule: Q01DX009 (ip), vehicle: Klucel (hydroxypropylcellulose) (HPC)
  T/C: 101 % of control
dose: 400.0 mg/kg/injection, schedule: Q01DX009 (ip), vehicle: Klucel (hydroxypropylcellulose) (HPC)
  T/C: 95 % of control

## CCCCOC(=O)CSSCC(=O)OCCCC
[8]
  T/C: 101 % of control
[4]
  T/C: 101 % of control
[5]
  T/C: 93 % of control

## C=CCOC(OCC=C)C(OCC=C)OCC=C
[3]
  T/C: 102 % of control
[6]
  T/C: 96 % of control
[7]
  T/C: 96 % of control
